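At the GI50, growth is halved. TGI: total growth inhibition.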
How the values were obtained:
Assay in all cases: inhibition of tumour cell growth, NCI panel, 384-well format
A498 renal = test system: A498 renal
NCI-H23 lung = test system: NCI-H23 lung
SF-539 CNS = test system: SF-539 CNS
T-47D breast = test system: T-47D breast
LOX IMVI melanoma = test system: LOX IMVI melanoma
OVCAR-5 ovarian = test system: OVCAR-5 ovarian
MDA-MB-468 breast = test system: MDA-MB-468 breast
SR leukemia = test system: SR leukemia
RPMI-8226 leukemia = test system: RPMI-8226 leukemia
SN12C renal = test system: SN12C renal
IGROV1 ovarian = test system: IGROV1 ovarian
SK-MEL-5 melanoma = test system: SK-MEL-5 melanoma
CCRF-CEM leukemia = test system: CCRF-CEM leukemia
PC-3 prostate = test system: PC-3 prostate
EKVX NSCLC = test system: EKVX NSCLC
UO-31 renal = test system: UO-31 renal
DU-145 prostate = test system: DU-145 prostate
ACHN renal = test system: ACHN renal
OVCAR-3 ovarian = test system: OVCAR-3 ovarian
SNB-19 CNS = test system: SNB-19 CNS
KM12 colon = test system: KM12 colon
MALME-3M melanoma = test system: MALME-3M melanoma
HT29 colon = test system: HT29 colon
A549 NSCLC = test system: A549 NSCLC
HCC-2998 colon = test system: HCC-2998 colon
NCI-H322M lung = test system: NCI-H322M lung
MDA-MB-231 breast = test system: MDA-MB-231 breast
MOLT-4 leukemia = test system: MOLT-4 leukemia
RXF 393 renal = test system: RXF 393 renal
UACC-257 melanoma = test system: UACC-257 melanoma
BT-549 breast = test system: BT-549 breast
UACC-62 melanoma = test system: UACC-62 melanoma
HOP-62 NSCLC = test system: HOP-62 NSCLC
NCI-H522 lung = test system: NCI-H522 lung
MDA-MB-435 melanoma = test system: MDA-MB-435 melanoma
HOP-92 NSCLC = test system: HOP-92 NSCLC
HCT-15 colon = test system: HCT-15 colon
OVCAR-8 ovarian = test system: OVCAR-8 ovarian
OVCAR-4 ovarian = test system: OVCAR-4 ovarian
M14 melanoma = test system: M14 melanoma
NCI-H460 NSCLC = test system: NCI-H460 NSCLC
HS 578T breast = test system: HS 578T breast
SF-268 CNS = test system: SF-268 CNS
NCI-H226 lung = test system: NCI-H226 lung
MCF7 breast = test system: MCF7 breast
SNB-75 CNS = test system: SNB-75 CNS
786-0 renal = test system: 786-0 renal
SK-MEL-28 melanoma = test system: SK-MEL-28 melanoma
SF-295 CNS = test system: SF-295 CNS
CAKI-1 renal = test system: CAKI-1 renal
HL-60(TB) leukemia = test system: HL-60(TB) leukemia
SK-OV-3 ovarian = test system: SK-OV-3 ovarian
SW-620 colon = test system: SW-620 colon
K-562 leukemia = test system: K-562 leukemia
COLO 205 colon = test system: COLO 205 colon
NCI/ADR-RES ovarian = test system: NCI/ADR-RES ovarian
TK-10 renal = test system: TK-10 renal

**Q.** With `C[C@@H](NC(=O)c1ccc(F)cc1)c1ccc2c(c1)CCN2C(=O)C1CCOCC1` as the compound, how does the GI50 (A498 renal) read?
**A.** > 100 µM

**Q.** And the TGI (A498 renal)?
**A.** > 100 µM

**Q.** What about the GI50 (NCI-H23 lung) of the same compound?
**A.** > 100 µM

**Q.** And the TGI (NCI-H23 lung)?
**A.** > 100 µM

**Q.** And the GI50 (SF-539 CNS)?
**A.** > 100 µM

**Q.** What about the TGI (SF-539 CNS) of the same compound?
**A.** > 100 µM

**Q.** And the GI50 (T-47D breast)?
**A.** 58.6 µM

**Q.** What about the TGI (T-47D breast) of the same compound?
**A.** > 100 µM

**Q.** And the GI50 (LOX IMVI melanoma)?
**A.** > 100 µM

**Q.** And the TGI (LOX IMVI melanoma)?
**A.** > 100 µM

**Q.** What about the GI50 (OVCAR-5 ovarian) of the same compound?
**A.** > 100 µM

**Q.** And the TGI (OVCAR-5 ovarian)?
**A.** > 100 µM

**Q.** And the GI50 (MDA-MB-468 breast)?
**A.** 34.4 µM

**Q.** And the TGI (MDA-MB-468 breast)?
**A.** > 100 µM

**Q.** And the GI50 (SR leukemia)?
**A.** > 100 µM

**Q.** What about the TGI (SR leukemia) of the same compound?
**A.** > 100 µM

**Q.** And the GI50 (RPMI-8226 leukemia)?
**A.** 91.4 µM

**Q.** And the TGI (RPMI-8226 leukemia)?
**A.** > 100 µM

**Q.** And the GI50 (SN12C renal)?
**A.** > 100 µM

**Q.** And the TGI (SN12C renal)?
**A.** > 100 µM

**Q.** What about the GI50 (IGROV1 ovarian) of the same compound?
**A.** > 100 µM

**Q.** And the TGI (IGROV1 ovarian)?
**A.** > 100 µM

**Q.** What about the GI50 (SK-MEL-5 melanoma) of the same compound?
**A.** > 100 µM

**Q.** What about the TGI (SK-MEL-5 melanoma) of the same compound?
**A.** > 100 µM

**Q.** And the GI50 (CCRF-CEM leukemia)?
**A.** > 100 µM

**Q.** What about the TGI (CCRF-CEM leukemia) of the same compound?
**A.** > 100 µM

**Q.** And the GI50 (PC-3 prostate)?
**A.** > 100 µM

**Q.** And the TGI (PC-3 prostate)?
**A.** > 100 µM

**Q.** What about the GI50 (EKVX NSCLC) of the same compound?
**A.** > 100 µM

**Q.** What about the TGI (EKVX NSCLC) of the same compound?
**A.** > 100 µM

**Q.** And the GI50 (UO-31 renal)?
**A.** > 100 µM

**Q.** What about the TGI (UO-31 renal) of the same compound?
**A.** > 100 µM

**Q.** And the GI50 (DU-145 prostate)?
**A.** > 100 µM

**Q.** What about the TGI (DU-145 prostate) of the same compound?
**A.** > 100 µM

**Q.** And the GI50 (ACHN renal)?
**A.** > 100 µM

**Q.** And the TGI (ACHN renal)?
**A.** > 100 µM

**Q.** And the GI50 (OVCAR-3 ovarian)?
**A.** > 100 µM

**Q.** And the TGI (OVCAR-3 ovarian)?
**A.** > 100 µM

**Q.** What about the GI50 (SNB-19 CNS) of the same compound?
**A.** > 100 µM

**Q.** And the TGI (SNB-19 CNS)?
**A.** > 100 µM

**Q.** And the GI50 (KM12 colon)?
**A.** > 100 µM

**Q.** What about the TGI (KM12 colon) of the same compound?
**A.** > 100 µM

**Q.** And the GI50 (MALME-3M melanoma)?
**A.** > 100 µM

**Q.** What about the TGI (MALME-3M melanoma) of the same compound?
**A.** > 100 µM

**Q.** And the GI50 (HT29 colon)?
**A.** > 100 µM

**Q.** What about the TGI (HT29 colon) of the same compound?
**A.** > 100 µM

**Q.** And the GI50 (A549 NSCLC)?
**A.** > 100 µM

**Q.** And the TGI (A549 NSCLC)?
**A.** > 100 µM

**Q.** And the GI50 (HCC-2998 colon)?
**A.** > 100 µM

**Q.** What about the TGI (HCC-2998 colon) of the same compound?
**A.** > 100 µM

**Q.** And the GI50 (NCI-H322M lung)?
**A.** > 100 µM

**Q.** And the TGI (NCI-H322M lung)?
**A.** > 100 µM

**Q.** And the GI50 (MDA-MB-231 breast)?
**A.** > 100 µM

**Q.** What about the TGI (MDA-MB-231 breast) of the same compound?
**A.** > 100 µM

**Q.** And the GI50 (MOLT-4 leukemia)?
**A.** > 100 µM

**Q.** And the TGI (MOLT-4 leukemia)?
**A.** > 100 µM

**Q.** What about the GI50 (RXF 393 renal) of the same compound?
**A.** > 100 µM

**Q.** And the TGI (RXF 393 renal)?
**A.** > 100 µM

**Q.** And the GI50 (UACC-257 melanoma)?
**A.** > 100 µM

**Q.** And the TGI (UACC-257 melanoma)?
**A.** > 100 µM

**Q.** And the GI50 (BT-549 breast)?
**A.** > 100 µM

**Q.** And the TGI (BT-549 breast)?
**A.** > 100 µM

**Q.** And the GI50 (UACC-62 melanoma)?
**A.** > 100 µM

**Q.** What about the TGI (UACC-62 melanoma) of the same compound?
**A.** > 100 µM

**Q.** What about the GI50 (HOP-62 NSCLC) of the same compound?
**A.** > 100 µM

**Q.** What about the TGI (HOP-62 NSCLC) of the same compound?
**A.** > 100 µM

**Q.** And the GI50 (NCI-H522 lung)?
**A.** > 100 µM

**Q.** And the TGI (NCI-H522 lung)?
**A.** > 100 µM

**Q.** And the GI50 (MDA-MB-435 melanoma)?
**A.** > 100 µM

**Q.** What about the TGI (MDA-MB-435 melanoma) of the same compound?
**A.** > 100 µM

**Q.** And the GI50 (HOP-92 NSCLC)?
**A.** > 100 µM

**Q.** What about the TGI (HOP-92 NSCLC) of the same compound?
**A.** > 100 µM

**Q.** And the GI50 (HCT-15 colon)?
**A.** > 100 µM

**Q.** And the TGI (HCT-15 colon)?
**A.** > 100 µM

**Q.** And the GI50 (OVCAR-8 ovarian)?
**A.** > 100 µM

**Q.** And the TGI (OVCAR-8 ovarian)?
**A.** > 100 µM

**Q.** And the GI50 (OVCAR-4 ovarian)?
**A.** 80.7 µM

**Q.** What about the TGI (OVCAR-4 ovarian) of the same compound?
**A.** > 100 µM

**Q.** What about the GI50 (M14 melanoma) of the same compound?
**A.** > 100 µM

**Q.** And the TGI (M14 melanoma)?
**A.** > 100 µM

**Q.** And the GI50 (NCI-H460 NSCLC)?
**A.** > 100 µM

**Q.** And the TGI (NCI-H460 NSCLC)?
**A.** > 100 µM

**Q.** And the GI50 (HS 578T breast)?
**A.** > 100 µM

**Q.** What about the TGI (HS 578T breast) of the same compound?
**A.** > 100 µM

**Q.** And the GI50 (SF-268 CNS)?
**A.** > 100 µM

**Q.** And the TGI (SF-268 CNS)?
**A.** > 100 µM

**Q.** What about the GI50 (NCI-H226 lung) of the same compound?
**A.** > 100 µM

**Q.** And the TGI (NCI-H226 lung)?
**A.** > 100 µM

**Q.** What about the GI50 (MCF7 breast) of the same compound?
**A.** > 100 µM

**Q.** What about the TGI (MCF7 breast) of the same compound?
**A.** > 100 µM

**Q.** What about the GI50 (SNB-75 CNS) of the same compound?
**A.** > 100 µM

**Q.** And the TGI (SNB-75 CNS)?
**A.** > 100 µM

**Q.** And the GI50 ([…]-0 renal)?
**A.** > 100 µM

**Q.** What about the TGI (786-0 renal) of the same compound?
**A.** > 100 µM

**Q.** What about the GI50 (SK-MEL-28 melanoma) of the same compound?
**A.** > 100 µM

**Q.** What about the TGI (SK-MEL-28 melanoma) of the same compound?
**A.** > 100 µM

**Q.** What about the GI50 (SF-295 CNS) of the same compound?
**A.** > 100 µM

**Q.** And the TGI (SF-295 CNS)?
**A.** > 100 µM

**Q.** What about the GI50 (CAKI-1 renal) of the same compound?
**A.** > 100 µM

**Q.** And the TGI (CAKI-1 renal)?
**A.** > 100 µM

**Q.** And the GI50 (HL-60(TB) leukemia)?
**A.** > 100 µM

**Q.** What about the TGI (HL-60(TB) leukemia) of the same compound?
**A.** > 100 µM

**Q.** What about the GI50 (SK-OV-3 ovarian) of the same compound?
**A.** > 100 µM

**Q.** What about the TGI (SK-OV-3 ovarian) of the same compound?
**A.** > 100 µM

**Q.** And the GI50 (SW-620 colon)?
**A.** > 100 µM

**Q.** And the TGI (SW-620 colon)?
**A.** > 100 µM

**Q.** What about the GI50 (K-562 leukemia) of the same compound?
**A.** > 100 µM

**Q.** What about the TGI (K-562 leukemia) of the same compound?
**A.** > 100 µM

**Q.** What about the GI50 (COLO 205 colon) of the same compound?
**A.** > 100 µM

**Q.** And the TGI (COLO 205 colon)?
**A.** > 100 µM

**Q.** And the GI50 (NCI/ADR-RES ovarian)?
**A.** > 100 µM

**Q.** And the TGI (NCI/ADR-RES ovarian)?
**A.** > 100 µM

**Q.** And the GI50 (TK-10 renal)?
**A.** > 100 µM

**Q.** What about the TGI (TK-10 renal) of the same compound?
**A.** > 100 µM
